Reference: ChEMBL document CHEMBL4715827, “Structure-guided design of pyridoclax derivatives based on Noxa / Mcl-1 interaction mode” (Eur J Med Chem, 2018)
Active and inactive are the calls of the source. The rule behind the calls is not given here.

Experiments:
[1] = Pro-apoptotic activity in human IGROV1-R10 cells transfected with Bcl-xL siRNA assessed as accumulation at sub G1 phase at 25 uM incubated for 24 hrs by propidium iodide staining based flow cytometry analysis (reference value: 17% ); assay type: functional
SK-OV-3 = test: Pro-apoptotic activity in human SKOV3 cells assessed as increase in caspase3/7 positive cells at 15 uM measured after 24 hrs in presence of ABT-737 by DAPI staining based fluorescence microscopy analysis; assay type: functional, cell-based
[2] = Pro-apoptotic activity in human IGROV1-R10 cells assessed as accumulation at sub G1 phase at 10 uM incubated for 24 hrs in presence of ABT-737 by propidium iodide staining based flow cytometry analysis (reference value: 10.8% ); assay type: functional
[3] = Pro-apoptotic activity in human IGROV1-R10 cells transfected with Bcl-xL siRNA assessed as accumulation at sub G1 phase at 15 uM incubated for 24 hrs by propidium iodide staining based flow cytometry analysis relative to control; assay type: functional
IGROV1-R10 [4] = test: Pro-apoptotic activity in human IGROV1-R10 cells transfected with Bak siRNA assessed as condensed nuclei at 15 uM incubated for 24 hrs in presence of ABT-737 by DAPI staining based fluorescence microscopic analysis; assay type: functional, cell-based
[5] = biological target: Induced myeloid leukemia cell differentiation protein Mcl-1 (Homo sapiens) (UniProt Q07820); test: Inhibition of FAM-Bim peptide binding to MCL-1 in human MCF-7 cells assessed as disruption by BRET assay; assay type: cell-based; conditions: MCF7
Induced myeloid leukemia cell differentiation protein Mcl-1 (Homo sapiens), sequence (Q07820 whole entry): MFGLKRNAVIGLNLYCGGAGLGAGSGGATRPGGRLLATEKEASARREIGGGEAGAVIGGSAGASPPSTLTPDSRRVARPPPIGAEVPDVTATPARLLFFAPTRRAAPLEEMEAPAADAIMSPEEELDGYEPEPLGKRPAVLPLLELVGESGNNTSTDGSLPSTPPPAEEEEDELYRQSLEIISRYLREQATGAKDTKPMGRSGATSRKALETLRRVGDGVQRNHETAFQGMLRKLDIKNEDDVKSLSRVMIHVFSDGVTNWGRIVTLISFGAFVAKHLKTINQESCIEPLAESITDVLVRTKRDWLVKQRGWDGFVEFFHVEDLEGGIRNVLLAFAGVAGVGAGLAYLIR

IGROV1-R10 [6] = test: Pro-apoptotic activity in human IGROV1-R10 cells transfected with Bcl-xL siRNA assessed as morphological alteration at 25 uM measured after 24 hrs by DAPI staining based fluorescence microscopy analysis; assay type: functional, cell-based
[7] = Pro-apoptotic activity in human IGROV1-R10 cells assessed as accumulation at sub G1 phase at 15 uM incubated for 24 hrs in presence of ABT-737 by propidium iodide staining based flow cytometry analysis (reference value: 10.8% ); assay type: functional
IGROV1-R10 [8] = test: Induction of apoptosis in human IGROV1-R10 cells assessed as up regulation of NOXA by Western blot analysis; assay type: functional, cell-based
[9] = Cytotoxicity against human IGROV1-R10 cells transfected with siMCL1 at 15 uM after 24 hrs by fluorescence microscopic analysis; assay type: cell-based; conditions: igrov1-r10, 24 h
IGROV1-R10 [10] = test: Pro-apoptotic activity in human IGROV1-R10 cells assessed as cleaved PARP expression at 15 uM measured after 24 hrs in presence of ABT-737 by Western blot analysis; assay type: functional, cell-based
[11] = Pro-apoptotic activity in human IGROV1-R10 cells assessed as accumulation at sub G1 phase at 25 uM incubated for 24 hrs in presence of ABT-737 by propidium iodide staining based flow cytometry analysis (reference value: 21.2% ); assay type: functional
IGROV1-R10 [12] = test: Pro-apoptotic activity in human IGROV1-R10 cells transfected with Bcl-xL siRNA assessed as increase in cleaved caspase-3 expression at 25 uM measured after 24 hrs by Western blot analysis; assay type: functional, cell-based
[13] = Pro-apoptotic activity in human IGROV1-R10 cells transfected with Bcl-xL siRNA assessed as accumulation at sub G1 phase at 15 uM incubated for 6 hrs by propidium iodide staining based flow cytometry analysis relative to control; assay type: functional
IGROV1-R10 [14] = test: Pro-apoptotic activity in human IGROV1-R10 cells transfected with Bcl-xL siRNA assessed as increase in cleaved PARP expression at 25 uM measured after 24 hrs by Western blot analysis; assay type: functional, cell-based
[15] = Pro-apoptotic activity in human IGROV1-R10 cells transfected with Bcl-xL siRNA assessed as accumulation at sub G1 phase at 15 uM incubated for 12 hrs by propidium iodide staining based flow cytometry analysis relative to control; assay type: functional
A549 [16] = test: Pro-apoptotic activity in human A549 cells assessed as accumulation subG1 phase at 15 uM after 24 hrs in presence of ABT-737 by flow cytometry (reference value: 3.83%); assay type: functional
[17] = Pro-apoptotic activity in human IGROV1-R10 cells assessed as accumulation at sub G1 phase at 25 uM incubated for 24 hrs by propidium iodide staining based flow cytometry analysis (reference value: 2.8% ); assay type: functional
IGROV1-R10 [18] = test: Pro-apoptotic activity in human IGROV1-R10 cells transfected with Bcl-xL siRNA assessed as cleaved PARP expression at 15 uM incubated for 8 hrs by Western blot analysis; assay type: functional, cell-based
[19] = Pro-apoptotic activity in human IGROV1-R10 cells transfected with Bcl-xL siRNA assessed as condensed nuclei at 25 uM measured after 24 hrs by DAPI staining based fluorescence microscopy analysis relative to control; assay type: functional
IGROV1-R10 [20] = test: Pro-apoptotic activity in human IGROV1-R10 cells transfected with Bak siRNA assessed as cleaved PARP level at 15 uM incubated for 24 hrs in presence of ABT-737 by Western blot analysis; assay type: functional, cell-based
[21] = Pro-apoptotic activity in human IGROV1-R10 cells transfected with Bak and Bax siRNA assessed as accumulation at sub G1 phase at 15 uM incubated for 24 hrs by propidium iodide staining based flow cytometry analysis (reference value: 4.3%); assay type: functional
IGROV1-R10 [22] = test: Pro-apoptotic activity in human IGROV1-R10 cells assessed as cleaved caspase-3 expression at 15 uM measured after 24 hrs in presence of ABT-737 by Western blot analysis; assay type: functional, cell-based
[23] = Pro-apoptotic activity in human IGROV1-R10 cells transfected with Bax siRNA assessed as accumulation at sub G1 phase at 15 uM incubated for 24 hrs in presence of ABT-737 by propidium iodide staining based flow cytometry analysis (reference value: 3.2% ); assay type: functional
[24] = Pro-apoptotic activity in human IGROV1-R10 cells transfected with Bcl-xL siRNA assessed as accumulation at sub G1 phase at 15 uM incubated for 8 hrs by propidium iodide staining based flow cytometry analysis relative to control; assay type: functional
[25] = Cytotoxicity against human AG1521 cells assessed as accumulation subG1 phase at 15 uM after 24 hrs by flow cytometry (reference value: 1.7%); assay type: cell-based; conditions: ag1521, 24 h
[26] = Pro-apoptotic activity in human IGROV1-R10 cells transfected with Bak siRNA assessed as accumulation at sub G1 phase at 15 uM incubated for 24 hrs by propidium iodide staining based flow cytometry analysis (reference value: 3.4%); assay type: functional
[27] = Pro-apoptotic activity in human IGROV1-R10 cells transfected with control siRNA assessed as accumulation at sub G1 phase at 25 uM incubated for 24 hrs by propidium iodide staining based flow cytometry analysis (reference value: 4.5% ); assay type: functional
A549 [28] = test: Pro-apoptotic activity in human A549 cells assessed as accumulation subG1 phase at 15 uM after 24 hrs by flow cytometry (reference value: 2.5%); assay type: functional
A2780 = test: Pro-apoptotic activity in human A2780 cells assessed as increase in caspase3/7 positive cells at 15 uM measured after 24 hrs in presence of ABT-737 by DAPI staining based fluorescence microscopy analysis; assay type: functional, cell-based

Structure (SMILES): Cc1cc(-c2ncc(-c3cccnc3)cc2/C=C/c2ccccc2)cnc1-c1cccc(C/C(N)=N/O)c1
- Activity [1]: 59%
- Activity (SK-OV-3): Active
- Activity [2]: 34.3%
- Activity [3]: 64.8%
- Activity (IGROV1-R10 [4]): inactive
- inhibition [5]: Active
- Activity (IGROV1-R10 [6]): Active
- Activity [7]: 57.43%
- Activity (IGROV1-R10 [8]): Active
- Activity [9]: Non-Toxic
- Activity (IGROV1-R10 [10]): Active
- Activity [11]: 55.75%
- Activity (IGROV1-R10 [12]): Active
- Activity [13]: 19.3%
- Activity (IGROV1-R10 [14]): Active
- Activity [15]: 52.2%
- Activity (A549 [16]): 68.86%
- Activity [17]: 40.69%
- Activity (IGROV1-R10 [18]): Active
- Activity [19]: 91.3%
- Activity (IGROV1-R10 [20]): inactive
- Activity [21]: 6%
- Activity (IGROV1-R10 [22]): Active
- Activity [23]: 56.7%
- Activity [24]: 35.2%
- Activity [25]: 1.98%
- Activity [26]: 6.8%
- Activity [27]: 47.8%
- Activity (A549 [28]): 12.93%
- Activity (A2780): Active
